Source: ChEMBL document CHEMBL1275274, “Direct renin inhibitors as a new therapy for hypertension” (J Med Chem, 2010)
Substitutions are numbered along the chain they refer to. ≈ marks a conversion by molar mass, not a printed value. One block for each compound: values may come before it.

Legend:
[1] = biological target: T1, Renin (Homo sapiens, UniProt P00797); assay type: cell-free, Plasma
T1 sequence (P00797 whole entry): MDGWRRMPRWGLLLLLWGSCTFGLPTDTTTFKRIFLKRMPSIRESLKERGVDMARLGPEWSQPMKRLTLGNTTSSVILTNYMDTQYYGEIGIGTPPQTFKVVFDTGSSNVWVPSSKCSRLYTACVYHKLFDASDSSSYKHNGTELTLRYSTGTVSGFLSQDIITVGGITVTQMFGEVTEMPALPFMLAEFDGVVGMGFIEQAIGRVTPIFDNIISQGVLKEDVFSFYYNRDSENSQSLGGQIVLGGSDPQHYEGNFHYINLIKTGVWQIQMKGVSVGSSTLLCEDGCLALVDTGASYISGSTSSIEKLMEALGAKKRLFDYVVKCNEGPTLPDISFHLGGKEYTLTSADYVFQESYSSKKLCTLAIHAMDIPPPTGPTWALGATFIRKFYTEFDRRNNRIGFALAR

[2] = Tmax in Wistar rat; assay type: ADME, organism-based; settings: in vivo
[3] = Oral bioavailability in Wistar rat; assay type: ADME, organism-based; settings: in vivo
[4] = Elimination half life in Wistar rat; assay type: ADME, organism-based; settings: in vivo, read-out: beta t1/2 (converted)
[5] = biological target: T1, Renin; assay: Inhibition of human recombinant renin in buffer
[6] = Oral bioavailability in rat; assay type: ADME, organism-based; settings: in vivo
[7] = Distribution coefficient, log D of the compound; assay type: physicochemical; settings: octanol/water
[8] = biological target: T1, Renin; assay: Binding affinity to human recombinant renin by isothermal titration calorimetry
[9] = biological target: T1, Renin; assay: Inhibition of renin in human plasma; assay type: cell-free
[10] = biological target: T2, Renin (Macaca mulatta, UniProt Q6DLW5); assay: Inhibition of renin in monkey plasma
T2 sequence (Q6DLW5 whole entry): T1 sequence (P00797 whole entry) with T68A, I214L, S235A, Q270P, R406H

[11] = biological target: T1, Renin; assay: Inhibition of renin in pH 7.4 buffer
[12] = Aqueous solubility of the compound at pH 6.6 buffer; assay type: physicochemical
[13] = (§1) Oral bioavailability in dog; assay type: ADME, organism-based, Canis lupus familiaris; settings: in vivo
[14] = Partition coefficient, log P of the compound at pH 7.4; assay type: physicochemical; settings: octanol/water
[15] = test system: Canis familiaris; assay: as §1; assay type: ADME, organism-based, Canis lupus familiaris; settings: in vivo
[16] = test system: Callithrix jacchus; assay: Oral bioavailability in marmoset; assay type: ADME, organism-based; settings: in vivo
[17] = biological target: T3, Renin-1 (Mus musculus, UniProt P06281); assay: Inhibition of mouse renin
T3 sequence (P06281 whole entry): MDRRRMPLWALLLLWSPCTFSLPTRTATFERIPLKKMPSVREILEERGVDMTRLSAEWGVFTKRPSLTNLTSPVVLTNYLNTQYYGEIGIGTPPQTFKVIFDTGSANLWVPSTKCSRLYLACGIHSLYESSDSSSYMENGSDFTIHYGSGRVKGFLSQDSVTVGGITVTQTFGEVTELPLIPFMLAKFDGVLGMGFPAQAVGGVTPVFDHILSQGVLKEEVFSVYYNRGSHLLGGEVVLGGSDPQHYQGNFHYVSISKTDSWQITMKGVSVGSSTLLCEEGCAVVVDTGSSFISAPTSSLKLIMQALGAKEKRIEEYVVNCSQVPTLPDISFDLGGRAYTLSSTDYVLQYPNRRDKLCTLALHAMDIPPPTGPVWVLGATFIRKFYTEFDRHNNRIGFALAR

[18] = Competitive inhibition of pig pepsin at pH 5; set-up: species or system Sus scrofa
[19] = biological target: Voltage-gated inwardly rectifying potassium channel KCNH2 (Homo sapiens, UniProt Q12809); assay: Inhibition of human ERG
Sequence of Voltage-gated inwardly rectifying potassium channel KCNH2 (Q12809 whole entry): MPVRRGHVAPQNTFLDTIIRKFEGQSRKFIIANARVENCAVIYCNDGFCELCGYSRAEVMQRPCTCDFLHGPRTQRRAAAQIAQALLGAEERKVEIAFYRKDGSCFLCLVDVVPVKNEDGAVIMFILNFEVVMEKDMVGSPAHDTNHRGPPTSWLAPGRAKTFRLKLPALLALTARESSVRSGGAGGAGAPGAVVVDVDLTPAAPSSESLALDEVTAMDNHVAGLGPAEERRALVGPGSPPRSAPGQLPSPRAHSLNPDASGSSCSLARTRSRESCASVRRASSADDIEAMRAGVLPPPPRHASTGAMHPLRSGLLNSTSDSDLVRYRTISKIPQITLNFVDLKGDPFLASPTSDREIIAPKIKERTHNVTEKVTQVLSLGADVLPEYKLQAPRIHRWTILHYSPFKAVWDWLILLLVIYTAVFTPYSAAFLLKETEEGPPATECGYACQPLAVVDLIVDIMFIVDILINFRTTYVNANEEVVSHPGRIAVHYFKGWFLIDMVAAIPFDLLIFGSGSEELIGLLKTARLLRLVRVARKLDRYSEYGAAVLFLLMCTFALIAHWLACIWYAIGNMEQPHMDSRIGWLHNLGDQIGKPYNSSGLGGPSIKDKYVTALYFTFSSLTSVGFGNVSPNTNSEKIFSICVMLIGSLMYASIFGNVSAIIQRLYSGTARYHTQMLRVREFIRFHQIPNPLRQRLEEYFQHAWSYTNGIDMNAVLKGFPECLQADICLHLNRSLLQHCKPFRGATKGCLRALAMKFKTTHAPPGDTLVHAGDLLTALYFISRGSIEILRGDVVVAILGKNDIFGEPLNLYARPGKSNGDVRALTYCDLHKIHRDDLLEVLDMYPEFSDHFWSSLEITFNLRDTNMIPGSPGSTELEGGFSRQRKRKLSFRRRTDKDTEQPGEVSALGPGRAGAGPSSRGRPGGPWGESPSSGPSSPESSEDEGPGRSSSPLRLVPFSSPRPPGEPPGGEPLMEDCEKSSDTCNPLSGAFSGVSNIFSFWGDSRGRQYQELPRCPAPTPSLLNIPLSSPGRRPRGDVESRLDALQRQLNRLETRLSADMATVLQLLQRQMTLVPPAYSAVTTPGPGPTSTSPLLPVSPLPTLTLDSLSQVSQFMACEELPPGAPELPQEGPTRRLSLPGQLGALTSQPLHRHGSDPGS

[20] = Oral bioavailability in monkey; assay type: ADME, organism-based, Macaca mulatta; settings: rhesus monkey, in vivo
[21] = Elimination half life in rhesus monkey; assay type: ADME, organism-based, Macaca mulatta; settings: in vivo, read-out: beta t1/2 (converted)
[22] = biological target: Cathepsin D (Homo sapiens, UniProt P07339); assay: Inhibition of cathepsin D
Sequence of Cathepsin D (P07339 65-162 limits assumed): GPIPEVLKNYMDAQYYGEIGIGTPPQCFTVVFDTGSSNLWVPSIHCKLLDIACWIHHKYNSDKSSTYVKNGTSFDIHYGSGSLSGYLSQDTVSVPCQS
Sequence of Cathepsin D (P07339 169-412 limits assumed): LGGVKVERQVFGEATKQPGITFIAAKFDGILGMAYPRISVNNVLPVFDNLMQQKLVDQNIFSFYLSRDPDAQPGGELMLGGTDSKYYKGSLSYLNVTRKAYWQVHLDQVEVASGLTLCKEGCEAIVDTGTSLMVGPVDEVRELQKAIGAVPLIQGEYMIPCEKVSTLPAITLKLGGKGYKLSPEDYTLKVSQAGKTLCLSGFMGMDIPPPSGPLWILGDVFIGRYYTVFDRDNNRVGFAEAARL

[23] = biological target: T4, Cathepsin E (Homo sapiens, UniProt P14091); assay: Inhibition of cathepsin E
T4 sequence (P14091 whole entry): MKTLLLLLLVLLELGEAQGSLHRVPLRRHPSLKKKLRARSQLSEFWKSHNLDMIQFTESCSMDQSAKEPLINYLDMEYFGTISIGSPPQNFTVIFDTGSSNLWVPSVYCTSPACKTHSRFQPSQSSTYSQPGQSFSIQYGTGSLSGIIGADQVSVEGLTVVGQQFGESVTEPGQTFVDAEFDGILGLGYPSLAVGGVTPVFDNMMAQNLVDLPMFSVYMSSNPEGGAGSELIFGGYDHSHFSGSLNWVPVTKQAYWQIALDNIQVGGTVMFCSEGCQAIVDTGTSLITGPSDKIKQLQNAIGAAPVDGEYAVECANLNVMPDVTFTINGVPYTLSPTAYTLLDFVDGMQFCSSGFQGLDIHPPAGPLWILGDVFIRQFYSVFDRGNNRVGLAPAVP

[24] = Elimination half life in dog; assay type: ADME, organism-based, Canis lupus familiaris; settings: in vivo, read-out: beta t1/2 (converted)
[25] = Oral bioavailability in rhesus monkey; assay type: ADME, organism-based, Macaca mulatta; settings: in vivo
[26] = biological target: Cytochrome P450 3A4 (Homo sapiens, UniProt P08684); assay: Inhibition of CYP3A4; assay type: ADME
Sequence of Cytochrome P450 3A4 (P08684 whole entry): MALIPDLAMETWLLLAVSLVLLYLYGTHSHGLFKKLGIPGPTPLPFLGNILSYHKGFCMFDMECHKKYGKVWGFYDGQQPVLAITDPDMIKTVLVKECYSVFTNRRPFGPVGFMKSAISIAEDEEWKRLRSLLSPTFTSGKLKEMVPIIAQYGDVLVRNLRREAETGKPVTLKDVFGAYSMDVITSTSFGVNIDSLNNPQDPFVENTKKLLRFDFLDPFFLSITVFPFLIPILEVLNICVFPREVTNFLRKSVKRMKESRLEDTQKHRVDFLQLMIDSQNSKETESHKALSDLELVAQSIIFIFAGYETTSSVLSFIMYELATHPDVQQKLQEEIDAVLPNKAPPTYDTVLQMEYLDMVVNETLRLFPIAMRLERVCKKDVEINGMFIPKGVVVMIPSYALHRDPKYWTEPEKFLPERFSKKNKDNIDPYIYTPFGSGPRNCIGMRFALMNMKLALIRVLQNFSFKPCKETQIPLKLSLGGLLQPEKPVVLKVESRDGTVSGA

[27] = Inhibition of Cytochrome P450; assay type: ADME

Compound: Cc1cc(Cl)c(OCCOc2ccc(C3=C(C(=O)N(Cc4cccc(C)c4C)C4CC4)[C@H]4CNC[C@@H](C3)N4)cc2)c(Cl)c1
IC50 [1]: 19 nM | Tmax [2]: 10 h | bioavailability [3]: 24% | half-life [4]: 6.6 h | IC50 [5]: 0.2 nM | bioavailability [6]: 24% | logD [7]: > 4.9

Compound: CCc1nc(N)nc(NCCNS(=O)(=O)c2ccc3ccccc3c2)c1-c1ccc2c(c1)N(CCCOC)C(=O)C(C)(C)O2
Kd [8]: 79 nM

Compound: Brc1ccc([C@H]2CCNC[C@@H]2OCc2ccc3ccccc3c2)cc1
IC50 [5]: 5000 nM

Compound: COc1ccccc1COCCCOc1ccc(N2CCNC[C@@H]2COC2=CC3C(C=C2)CCCN3CCNC(C)=O)cc1 (stereo not given in full)
IC50 [5]: 0.5 nM

Compound: COc1ccccc1COCCCOc1ccc(N2C(=O)CNC[C@@H]2COC2=CC3C(C=C2)CCCN3CCNC(C)=O)cc1 (stereo not given in full)
IC50 [5]: 0.29 nM

Compound: COCCCN1C(=O)COC2C=CC(OC[C@H]3CNCC(=O)N3c3ccc(OCCCOCc4ccccc4OC)cc3)=CC21 (stereo not given in full)
IC50 [5]: 0.68 nM

Compound: COCCCN1C(=O)COC2C=CC(SC[C@H]3CNCC(=O)N3c3ccc(OCCCOCc4ccccc4OC)cc3)=CC21 (stereo not given in full)
IC50 [5]: 0.18 nM

Compound: CCCCNC(=O)[C@H](C)C[C@H](O)[C@@H](N)C[C@H](C)COC(=O)c1cn(Cc2ccccc2)c2ccccc12
IC50 [5]: 1 nM

Compound: CNC[C@H](CC1CCCCC1)NC(=O)N1CCC[C@@H]([C@@H](OCCCOC)c2ccccc2)C1
IC50 [1]: 447 nM | bioavailability [6]: 36%

Compound: COc1ccc(CO[C@H]2CNCC[C@@H]2c2ccc(Cl)cc2)cc1
IC50 [18]: 1500 nM | IC50 [5]: 25000 nM

Compound: COc1ccccc1COCCCOc1ccc([C@H]2CCNC[C@@H]2OCc2ccc3c(c2)NCCC3)cc1
IC50 [1]: 31 nM | solubility [12]: 0.003 mg/mL (≈ 5.81 µM) | IC50 [5]: 0.21 nM | logD [7]: 5.6

Compound: CCc1nc(N)nc(N)c1-c1ccc2c(c1)N(CCNC(C)=O)C(=O)[C@](C)(c1ccccc1)O2
bioavailability [6]: 10%

Compound: CNC[C@H](CC1CCCCC1)NC(=O)N1CCC[C@@H]([C@@](O)(CCCCOC)c2cccc(Cl)c2)C1
IC50 [19]: > 30000 nM | solubility [12]: > 1 mg/mL | bioavailability [6]: 13%

Compound: O=C(C1=C(c2ccc(CCCOc3c(F)ccc(F)c3Cl)cc2)C[C@@H]2CNC[C@H]1N2)N(Cc1cccc(Cl)c1Cl)C1CC1
bioavailability [20]: 9% | half-life [21]: 10 h | bioavailability [13]: 36% | IC50 [22]: 2700 nM | IC50 [23]: 8100 nM | half-life [24]: 10 h | bioavailability [25]: 9% | IC50 [26]: > 10000 nM | logD [7]: > 4.6

Compound: CNC[C@H](CC1CCCCC1)NC(=O)N1CCC[C@@H]([C@@H](OCCNC(=O)OC)c2cccc(Cl)c2)C1
IC50 [1]: 0.8 nM | bioavailability [6]: 9%

Compound: CCc1nc(N)nc(N)c1-c1ccc2c(c1)N(CCCO)C(=O)C(C)(c1ccccc1)O2 (racemic)
IC50 [27]: > 30000 nM | bioavailability [6]: 44%

Compound: CN[C@H](CNC(=O)N1CCC[C@@H]([C@@H](OCCNC(=O)OC)c2cccc(Cl)c2)C1)C[C@H]1CCCOC1 [VTP-27999]
IC50 [1]: < 10 nM

Continued, values first:

IC50 [5]: 0.8 nM
Compound: CCCCNC(=O)[C@H](C)C[C@H](O)[C@@H](N)CC(C)(C)CC(=O)N1C[C@H](C(=O)OC)Cc2ccccc21

IC50 [5]: 2 nM
Compound: COC[C@@H]1CNC[C@H](OCc2ccc3ccccc3c2)[C@H]1c1ccc(COC(=O)c2ccccc2Cl)cc1

IC50 [9]: 20 nM
Compound: CCCCNC(=O)[C@@H](NC[C@@H]1CCCCOc2ccccc2C[C@H](NC(=O)OC(C)(C)C)C(=O)N[C@@H](Cc2cnc[nH]2)C(=O)N1)C(C)C

IC50 [10]: 11 nM
Compound: C=CC[C@H](NC(=O)CNS(=O)(=O)N1CCOCC1)C(=O)N[C@@H](CC1CC=C(c2cccc3ccccc23)CC1)[C@@H](O)[C@@H](O)CC(C)C (stereo not given in full)

IC50 [1]: 0.3 nM
Compound: COCCCCOc1ccccc1C(=O)NC[C@@H](C[C@H](N)[C@@H](O)C[C@H](C(=O)NCCC1CCN(C(C)=O)CC1)C(C)C)C(C)C

IC50 [11]: 4 nM
Compound: CCC(C)C[C@H](NC(=O)[C@@H](NC[C@@H](O)[C@@H](N)CCCc1ccc(-c2ccccc2)cc1)C(C)C)C(=O)NCCCc1ccccc1 (stereo not given in full)

IC50 [1]: 18 nM | IC50 [5]: 1.4 nM
Compound: COc1ccccc1COCCCOc1ccc(C2=C(C(=O)N(Cc3ccnc(OC)c3C)C3CC3)[C@H]3CNC[C@@H](C2)N3)cc1

IC50 [1]: 0.6 nM | solubility [12]: 0.124 mg/mL (≈ 206 µM) | logD [7]: 3
Compound: COc1ccccc1COCCCOc1ccc([C@H]2CCNC[C@@H]2OCc2ccc3c(c2)N(CCNC(C)=O)CCC3)cc1

IC50 [1]: 2.2 nM | bioavailability [13]: 27% | solubility [12]: 0.024 mg/mL (≈ 38 µM) | logD [14]: 3.7 | IC50 [5]: 0.06 nM
Compound: COc1ccccc1COCCCOc1ccc([C@@H]2[C@@H](OCc3cc(OC)c4ccccc4c3)CNC[C@H]2OC[C@H](O)CO)cc1

Kd [8]: 270 nM
Compound: CCc1nc(N)nc(NCCc2ccccc2NC(=O)c2ccc(N)c(OC)c2)c1-c1ccc2c(c1)N(CCCOC)C(=O)C(C)(C)O2

IC50 [5]: 0.62 nM
Compound: COc1ccccc1COCCCOc1ccc(C2=C(C(=O)N(Cc3cccc(OC)c3C)C3CC3)[C@H]3CNC[C@@H](C2)N3)cc1

IC50 [1]: 4 nM
Compound: CCCCNC(=O)[C@H](C)C[C@H](O)[C@@H](N)C[C@@H](CNC(=O)c1cn(CC)c2ccccc12)C(C)C

IC50 [5]: 11 nM
Compound: CC(C)C[C@H](O)[C@H](O)[C@H](CC1CCCCC1)NC(=O)[C@H](Cc1cnc[nH]1)NC(=O)C[C@H](C)c1ccccc1

IC50 [5]: 39 nM
Compound: COc1cccc(OCCCc2cccnc2)c1C(=O)N[C@@H](CC1CCCCC1)[C@@H](O)[C@@H](O)CC(C)C

IC50 [5]: 11 nM
Compound: CC[C@H]1CC[C@](O)(CCc2ccccc2)C[C@@H]1C(=O)N[C@@H](CC1CCCCC1)[C@@H](O)[C@@H](O)CC(C)C

F [15]: 32% | F [16]: 16% | IC50 [17]: 4.5 nM
Compound: COCCCOc1cc(C[C@@H](C[C@H](N)[C@@H](O)C[C@H](C(=O)NCC(C)(C)C(N)=O)C(C)C)C(C)C)ccc1OC

IC50 [1]: 8.9 nM | bioavailability [13]: 6% | solubility [12]: 0.003 mg/mL (≈ 4.65 µM) | logD [14]: 5.7
Compound: COC[C@@H](O)CO[C@@H]1CNC[C@H](OCc2cc(OC)c3ccccc3c2)[C@H]1c1ccc(OCCCOCc2ccccc2OC)cc1

IC50 [5]: 12 nM
Compound: COc1ccccc1COCCCOc1ccc(N2C(=O)CNC[C@@H]2COCc2cccnc2)cc1
